No end group written: not given here.
How the values were obtained:
PAR-2 = assay: FZI/0-PAR-2 AP competitive binding in Caco2 cells; design: species or system human
Description: FIGS. 4A-4D. FZI/0-PAR-2 AP competitive binding experiments.
FZI/0-PAR-2 AP competitive binding experiments. The activation of PAR-2 requires binding of either its tryptase-generated, cleaved N-terminal portion or the synthetic peptide equivalent, PAR-2 AP, to the receptor's extracellular loop 2 (ECL2) (47). To establish whether FZI/0 binds to the same receptor domain, competitive binding experiments were conducted in Caco2 cells. Cell monolayers were incubated with FITC-FZI/0 (2×10^−8M)) either in the presence of an excess of PAR-2 AP (10^−6M) or a scrambled peptide and then analyzed by fluorescence microscopy.

[1] = tested on: wild-type mouse intestinal tissues; assay: Intestinal TEER in wild-type mice tissues
Caco2 cell monolayers = assay: PAR-2 AP-induced actin rearrangement in Caco2 cell monolayers; format: cell-based, human; conditions: 10^−6M PAR-2 AP, Caco2, vs BSA
Text: FIGS. 5A to 5D. Actin cytoskeleton arrangement in Caco2 cells exposed to PAR2-AP (FIG. 5A), BSA (FIG. 5B), PAR2-AP+FZI/0 (FIG. 5C), or PAR-2 AP+FZI/1 (FIG. 5D).
Effect of the Zot/zonulin inhibitor FZI/0 on PAR-2 AP-induced actin rearrangement. It has been recently reported that activation of PAR-2 receptor by PAR-2 AP promotes cytoskeletal reorganization (53). To establish whether this effect can be prevented by the synthetic Zot/zonulin peptide inhibitor, FZI/0, immunofluorescence studies were conducted in Caco2 cell monolayers. […] These cytoskeletal changes were blocked by the pre-incubation with 2×10^−6M FZI/0 (FIG. 5C), but not by the scrambled peptide FZI/1 (FIG. 5D). Therefore, PAR-2 AP and FZI/0 appear to bind to the identical structure on enterocytes.

Row | Substance | binding to Caco2 cells (fluorescent particles) (PAR-2; FITC-labelled FZI/0 vs media control) | intestinal resistance (TEER) over time [1] | actin cytoskeleton arrangement (Caco2 cell monolayers) | displacement of FITC-FZI/0 binding (PAR-2; FITC-FZI/0 2×10^−8M, excess of competitor (PAR-2 AP 10^−6M; 100×))
1 | GGVLVQPG [FZI/0] | significant number of fluorescent particles |  |  | 
2 | SLIGRL [PAR-2 AP] |  | comparable drop in intestinal resistance | dissolution of stress fibers | significant reduction of FZI/0 immunofluorescent staining particles
